Data reported in PMC6434189, “Peperomin E and its orally bioavailable analog induce oxidative stress-mediated apoptosis of acute myeloid leukemia progenitor cells by targeting thioredoxin reductase” (Redox Biology, 2019).

Experiments:
[1] = system: NBM CD34+ (including hBMSCs) cells; experiment: Release study of DMAPE in vitro, NBM CD34+ cells (UFLC-MS/MS); type: in vitro ADME, human; details: 10 μM DMAPE, 24 h
Experimental: 1 × 10^5 cells (including sorted CD34^+ KG-1a cells and NBM cells) were seeded at 48-well plates (Corning, New York, USA) in the IMDM-based serum-free media for 1 h. The cells were then incubated with 10 μM DMAPE at 37 °C in the 5% CO2 incubator for 0, 12 or 24 h. The culture supernatant was collected by centrifugation at 3000 rpm for 10 min and evaporated to dryness at 30 °C using a CentriVap vacuum centrifugal concentrator. The resulting residue was reconstituted in 100 μL methanol, vortexed and centrifuged at 12000 rpm for 10 min. A 2 μL aliquot of the supernatant was injected for UFLC-MS/MS analysis (UFLC-MS/MS analysis method same as the pharmacokinetic study of DMAPE, see Additional method in Supplementary Materials).

[2] = system: Trx-ASK1 complex in KG-1a CD34+ cells; experiment: Trx1 immunoprecipitation, Trx-ASK1 interaction; type: cell-based, human; details: 0.5, 2.0, 5.0 μM
Experimental: The KG-1a CD34^+ cells were treated with PepE or vehicle control (DMSO) for 12 h. The cellular proteins were extracted by RIPA buffer and quantified by the Bradford method. For each cell lysate, a volume containing 1 mg protein was mixed with 1 μg anti-Trx1 antibody coupled to 20 μL protein G-Sepharose (Abcam) and tumbled at 4 °C for 2 h. The Sepharose beads were then washed three times at 4 °C with a washing buffer containing 50 mM Tris (pH = 7.4), 0.5 M NaCl, and 1 mM EGTA. The immunoprecipitated proteins were eluted and denatured by 2×SDS-PAGE loading buffer and then boiled for 5 min. The eluted solutions were then centrifuged at 12000 g; the supernatants were collected and stored at −20 °C for SDS-PAGE and western blot analyses.

GPX1 = target: T1, GPX1 (Homo sapiens, UniProt P07203); experiment: BLI binding assay, GPX1
T1 construct: purchased Abcam
T1 sequence (P07203 1-203): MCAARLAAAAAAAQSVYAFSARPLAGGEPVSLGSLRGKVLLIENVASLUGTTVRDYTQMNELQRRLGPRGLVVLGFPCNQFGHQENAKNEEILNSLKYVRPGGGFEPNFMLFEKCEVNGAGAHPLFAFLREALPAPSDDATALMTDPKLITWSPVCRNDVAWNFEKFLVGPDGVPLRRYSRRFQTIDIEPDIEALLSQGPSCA
Experimental: The binding kinetics of PepE or PepA to purified recombinant proteins were determined using BLI on an Octet RED 96 system (ForteBio, Shanghai, China) following the manufacturer's protocol. All interaction analyses were performed at 25 °C in PBS with 0.2% DMSO. Purified recombinant proteins (0.9 μM, the TrxR1 full length and TrxR1 protein fragment were pre-reduced by 400 μM of NADPH before test) were pre-labeled with biotin using […] (Abcam) following the manufacturer's instruction. Loading of the Dip and Read Super Streptavidin (SSA) Biosensors (ForteBio) were conducted by exposing biotinylated proteins to biosensor tips for 2 h. The 96-well microplates used in the Octet were filled with 200 μL sample or buffer per well and agitated at 1000 rpm. The loaded biosensors were washed in buffer for 600 s and transferred to wells containing PepE at concentrations of 0.625, 1.25, 2.5, 5, and 10 μM or PepA at concentrations of 1.25, 2.5, 5, 10 and 20 μM, respectively, in the buffer. […] Reference measurements were conducted using the buffer instead of PepE (or PepA). A parallel set of SA unloaded biosensors was prepared to act as a control. […] Kinetic parameters (Kon and Kdis) and affinity (KD) were determined from a global fit to a 1:1 binding model of the data between proteins and PepE using Octet software (ForteBio).

recombinant human TrxR1 = target: T2, recombinant human TrxR1 (Homo sapiens, UniProt Q16881); experiment: NADPH oxidative activity assay; type: biochemical; details: 5 μM, TrxR1 0.2 μM
T2 construct: purchased Abcam ab204206
T2 sequence (Q16881 1-499 isoform Q16881-5): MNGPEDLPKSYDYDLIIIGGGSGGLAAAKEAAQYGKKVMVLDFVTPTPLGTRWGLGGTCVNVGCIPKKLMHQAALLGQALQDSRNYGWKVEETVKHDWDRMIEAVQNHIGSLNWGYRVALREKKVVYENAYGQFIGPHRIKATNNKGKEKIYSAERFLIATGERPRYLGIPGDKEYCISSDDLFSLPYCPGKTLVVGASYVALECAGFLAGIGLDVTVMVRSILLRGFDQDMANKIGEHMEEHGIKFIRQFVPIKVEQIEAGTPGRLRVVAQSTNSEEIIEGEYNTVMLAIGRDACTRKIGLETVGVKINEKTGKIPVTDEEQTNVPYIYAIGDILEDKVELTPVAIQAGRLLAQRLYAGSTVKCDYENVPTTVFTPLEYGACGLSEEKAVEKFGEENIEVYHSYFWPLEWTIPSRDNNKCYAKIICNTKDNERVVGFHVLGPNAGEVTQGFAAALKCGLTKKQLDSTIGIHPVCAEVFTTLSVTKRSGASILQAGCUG
Experimental: The NADPH oxidative activity by TrxR1 in the presence of PepE was performed according to the previous reports. Briefly, the recombinant human TrxR1 protein (0.2 μM) was incubated with either 5 μM of PepE or 5 μM of DNCB at room temperature in assay buffer (50 mM Tris-HCl, 1 mM EDTA, pH = 7.5), same amount of DMSO was used as negative control. NADPH was then added (final concentration was set at 200 μM) and the absorbance was monitored at 340 nm for 30 min using the SpectraMax i3x microplate reader (Molecular Devices), the molar extinction coefficient was set as 6200 M^−1cm^−1. The linear decrease in NADPH absorbance was used for calculating NADPH consumption rate and expressed as NADPH μM^−1min^−1enzyme μM^−1.

DMAPE remained in the culture media [1] | Kd (GPX1) [µM] | kon (GPX1) [M⁻¹ s⁻¹] | consumption of NADPH by TrxR1 relative to the control (recombinant human TrxR1) [fold] | SMILES | amount of ASK1 bound to Trx1 [2]
about half |  |  |  | COc1cc(C(c2cc(OC)c3c(c2)OCO3)[C@@H]2COC(=O)[C@H]2CN(C)CCO)cc2c1OCO2 [DMAPE, (2S,3S)-6-Methyl (hydroxyethyl) amino-2,6-dihydropeperomin E] | 
 | 534 | 6400 | ~7 | C=C1C(=O)OC[C@H]1C(c1cc(OC)c2c(c1)OCO2)c1cc(OC)c2c(c1)OCO2 [PepE, Peperomin E] | dose-dependent decrease
